Measured values from US20220184008A1, “MODULATORS OF INTRACELLULAR CHLORIDE CONCENTRATION” (FONDAZIONE ISTITUTO ITALIANO DI TECNOLOGIA, priority 2019, published 2022).

Tests used:
NKCC1 [1] = assay: Calcium kinetic assay in primary cultures of immature hippocampal neurons; type: cell-based; details: 10 μM; immature neurons 3 DIV; Table 1
Description: FIG. 2: In vitro testing of the NKCC1 inhibitors in a calcium kinetic assay. a) Example traces of fluorescence levels upon application of GABA (100 μM) and KCl (90 mM) used to trigger calcium influx in primary neuronal cultures treated after 3 days in culture (3 DIV) with vehicle, bumetanide, furosemide and compounds 3.8, 3.13 and 3.17 in the calcium kinetic assay. b) Quantification of the average fluorescence increase upon GABA application normalized to the increase upon KCl application in neurons treated with bumetanide, furosemide and 3 exemplary compounds (3.8, 3.13, 3.17) (10 μM, 100 μM). Data represents mean±sem from 5 independent experiments, and they are presented as % of the control. *P<0.05, **P<0.01, ***P<0.001 Kruskal-Wallis Anova (Dunn's Post hoc Test).
Next, the compounds of the invention were tested for their ability to revert the depolarizing GABAergic signaling in immature neurons. This effect was indirectly measured as calcium influx into the cells with an in vitro calcium kinetic assay in primary cultures of hippocampal neurons. The calcium kinetic assay exploits the physiological, endogenous, high expression of NKCC1 in immature neurons, which causes depolarizing actions of GABA and can activate voltage-gated Ca^2+ channels. Thus, in immature neurons, a compound that blocks NKCC1 is predicted to inhibit Ca^2+ responses upon GABA application. Immature neurons were cultured for 3 days in vitro (3 DIV) and loaded for 15 min with a calcium-sensitive dye (Fluo4). Then, the neurons were treated with bumetanide and furosemide (as positive controls) or with each of the selected compounds for 15 min. As a functional readout, the fluorescence level was monitored in these cultures before and after application of GABA (100 μM, for 20 sec). To test for neuronal viability at the end of the experiment, KCl was applied (90 mM, for 40 sec), which strongly depolarizes neurons, causing high activation of voltage-gated Ca^2+ channels in live cells. To quantify how bumetanide, furosemide, and selected compounds influenced NKCC1 inhibition, the fluorescence values were normalized upon GABA application to the fluorescence levels upon KCl application in treated neurons.

NKCC1 [2] = biological target: T1, NKCC1 (Homo sapiens, UniProt P55011); assay: Chloride kinetic assay (Cl-sensitive YFP) in NKCC1-transfected HEK293 cells; type: cell-based; details: 10 μM; NKCC1-transfected HEK293; Table 1; read-out: NKCC1 Inhibition % 10 μM HEK Chloride YFP assay
T1 construct: expressed in transfected cells; host or cells: HEK293
T1 sequence (P55011 1-1212): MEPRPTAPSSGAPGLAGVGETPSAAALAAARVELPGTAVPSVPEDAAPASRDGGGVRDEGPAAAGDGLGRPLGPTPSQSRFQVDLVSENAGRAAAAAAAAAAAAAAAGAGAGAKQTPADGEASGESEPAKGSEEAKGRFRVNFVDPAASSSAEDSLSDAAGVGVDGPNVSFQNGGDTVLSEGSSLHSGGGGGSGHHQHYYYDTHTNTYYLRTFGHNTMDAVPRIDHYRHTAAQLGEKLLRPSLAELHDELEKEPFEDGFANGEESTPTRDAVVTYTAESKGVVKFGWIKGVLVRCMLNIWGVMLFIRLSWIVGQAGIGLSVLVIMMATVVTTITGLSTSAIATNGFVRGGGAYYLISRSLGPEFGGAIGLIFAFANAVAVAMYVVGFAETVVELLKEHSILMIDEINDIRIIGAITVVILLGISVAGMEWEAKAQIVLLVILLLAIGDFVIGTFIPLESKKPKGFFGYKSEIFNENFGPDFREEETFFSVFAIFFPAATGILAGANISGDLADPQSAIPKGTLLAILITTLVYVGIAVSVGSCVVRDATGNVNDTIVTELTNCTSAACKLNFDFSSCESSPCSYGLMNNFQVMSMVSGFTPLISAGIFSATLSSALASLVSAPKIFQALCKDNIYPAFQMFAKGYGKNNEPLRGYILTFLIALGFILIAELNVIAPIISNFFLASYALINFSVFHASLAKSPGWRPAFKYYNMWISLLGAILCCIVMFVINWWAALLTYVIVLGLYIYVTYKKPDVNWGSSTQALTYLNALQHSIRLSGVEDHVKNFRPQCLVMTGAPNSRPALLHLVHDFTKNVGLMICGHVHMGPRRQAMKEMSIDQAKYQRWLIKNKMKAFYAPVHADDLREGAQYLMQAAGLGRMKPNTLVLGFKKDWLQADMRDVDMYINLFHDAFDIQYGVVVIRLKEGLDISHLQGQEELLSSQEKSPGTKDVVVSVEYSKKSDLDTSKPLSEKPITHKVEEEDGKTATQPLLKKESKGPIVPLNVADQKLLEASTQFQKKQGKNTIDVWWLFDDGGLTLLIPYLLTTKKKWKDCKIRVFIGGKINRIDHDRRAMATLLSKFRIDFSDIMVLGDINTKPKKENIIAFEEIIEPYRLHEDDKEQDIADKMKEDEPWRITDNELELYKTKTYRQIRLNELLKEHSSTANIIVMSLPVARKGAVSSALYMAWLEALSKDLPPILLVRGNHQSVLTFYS
Description: FIG. 1: In vitro testing of the NKCC1 inhibitors in the chloride kinetic assay a) Example traces obtained in the chloride kinetic assay on HEK cells transfected with the YFP (mock) or with YFP and NKCC1. The arrow indicates the addition of NaCl (final concentration 74 mM) used to initiate the flux assay. b) Quantification of the effect of bumetanide (10 μM and 100 μM) or furosemide (10 μM and 100 μM) in the chloride kinetic assay on mock or NKCC1-transfected HEK293 cells. Data represents mean±sem from 5 independent experiments. c) Quantification of the effect of bumetanide and furosemide and 2 selected compounds (3.8, 3.17) in the chloride kinetic assay on NKCC1-transfected HEK293 cells. Data represents mean±sem from 5 independent experiments, and they are represented as % of the controls. *P<0.05, **P<0.01, ***P<0.001 Kruskal-Wallis Anova (Dunn's Post hoc Test); ###P<0.001 two-tailed unpaired Student t-test.
To screen in vitro the compounds efficiency in blocking NKCC1, a functional NKCC1 transporter assay was performed by measuring variation of Cl^− ion concentration in the cell through a Cl^− sensitive membrane-tagged yellow fluorescent protein (mbYFPQS, Addgene). mbYFPQS fluorescence is inversely dependent on the concentration of Cl^− inside the cell thus allowing an indirect estimation of the Cl^− transporter activity. In particular, HEK293 cells were transfected with NKCC1 or mock construct (control) together with the Cl^− sensitive YFP. After 2 DIV, the cells were treated with bumetanide and furosemide (as positive controls) or with each of the tested compounds of the invention in a Cl^− free medium. After 30 min, the inhibitory activity of the compounds was tested by monitoring fluorescence upon application of NaCl (FIG. 1a). Transported by NKCC1, Cl binds the YFP, leading to a fluorescence decrease. […] With the Cl kinetic assay, the NKCC1 inhibitory activity of the selected compounds was tested (FIG. 1c).

inhibition at 10 µM (NKCC1 [2]): 30%
Compound: NS(=O)(=O)c1cc(C(=O)O)c(O)cc1NCCCCCCCC(F)(F)F [Compound 7.4, 2-hydroxy-5-sulfamoyl-4-(8,8,8-trifluorooctylamino) benzoic acid]
NKCC1 Inhibition % 10 μM Neurons Calcium kinetic assay (NKCC1 [1]): 24%
